From PubChem BioAssay AID652002 (Sanford-Burnham Center for Chemical Genomics, 2013) come the findings set out here.

Activity calls are given as the source filed them. No rule for the calls is given here.

Test [1] is described as follows: TRAIL sensitizers in caspase-8 expressing neuroblastoma cells, dose response, NB7 cells plus caspase-8, luminescence, panel (AID 652002). Conditions: NB7 neuroblastoma +caspase-8, no TRAIL, compound-alone cytotoxicity counter-screen, luminescence viability, NB7+Caspase-8. (In general: Counterscreens check selectivity or assay interference.)
The target of another test is NB7+Caspase-8. Described as above. The settings on record: NB7 neuroblastoma +caspase-8, TRAIL sensitization, luminescence viability, with TRAIL.
Test [2] deals with Tumor necrosis factor receptor superfamily member 10B (Homo sapiens) (UniProt O14763). Described as above. Conditions: NB7 neuroblastoma +caspase-8, TRAIL sensitization, luminescence viability; NB7+Caspase-8; with TRAIL, mean of runs.
Tumor necrosis factor receptor superfamily member 10B (Homo sapiens), sequence (O14763 whole entry, looked up): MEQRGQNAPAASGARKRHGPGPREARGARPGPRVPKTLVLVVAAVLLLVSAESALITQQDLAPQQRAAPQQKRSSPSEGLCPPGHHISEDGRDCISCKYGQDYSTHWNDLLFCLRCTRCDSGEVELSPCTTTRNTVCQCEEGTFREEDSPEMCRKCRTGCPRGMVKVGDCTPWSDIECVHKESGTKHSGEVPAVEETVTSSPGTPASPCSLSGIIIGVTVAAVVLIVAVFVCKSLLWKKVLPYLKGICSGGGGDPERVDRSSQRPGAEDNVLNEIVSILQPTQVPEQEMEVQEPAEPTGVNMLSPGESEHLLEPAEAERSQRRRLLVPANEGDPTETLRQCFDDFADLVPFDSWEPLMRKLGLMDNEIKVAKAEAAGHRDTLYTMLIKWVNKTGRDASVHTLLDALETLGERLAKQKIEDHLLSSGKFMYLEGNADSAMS
[3] abbreviates: run 1, single replicate panel EC50.
Setting [4] is: run 2, single replicate panel EC50.

In general, EC50 refers to the concentration needed to bring the measured effect to its halfway point. Consider `CCCCC1CCC(C(=O)N(CCC(C)C)c2c(N)n(CCCC)c(=O)[nH]c2=O)CC1` (stereo not given), for which the EC50 is > 12.5 µM (inactive) in test [1] (mean of runs); above 12.5 µM in test [1] (setting [3]); above 12.5 µM in test [1] (setting [4]); above 12.5 µM on NB7+Caspase-8 (setting [3]); above 12.5 µM at NB7+Caspase-8 (setting [4]); > 12.5 µM (inactive) in test [2].

On to `Nc1ccccc1C(=O)NN=Cc1cccc([N+](=O)[O-])c1`, for which the EC50 entry in test [1] (mean of runs) and in test [2] was “inactive” each time. The EC50 in test [1] (setting [3]) was above 12.5 µM; in test [1] (setting [4]), 9.8 µM; at NB7+Caspase-8 (setting [3]), above 12.5 µM; at NB7+Caspase-8 (setting [4]) it was 7.52 µM.

In the case of `O=C(c1cnc(Cl)c(Cl)c1)N1CCN(S(=O)(=O)c2ccc3ccccc3c2)CC1`, the EC50 in test [1] (mean of runs) was > 12.5 µM (inactive); in test [1] (setting [3]), above 12.5 µM; in test [1] (setting [4]) it was above 12.5 µM; on NB7+Caspase-8 (setting [3]), above 12.5 µM; on NB7+Caspase-8 (setting [4]), above 12.5 µM; in test [2] it was > 12.5 µM (inactive).

For `COc1ccc(/C=N/Nc2nc3ccccc3c(=O)n2-c2ccccc2)cc1OC`, the EC50 entry in test [1] (mean of runs) and in test [2] was “inactive” throughout. Further, the EC50 is 7.35 µM in test [1] (setting [3]), 9.86 µM in test [1] (setting [4]), above 12.5 µM at NB7+Caspase-8 (setting [3]) and 9.41 µM at NB7+Caspase-8 (setting [4]).

In the case of `Cn1c(=O)c2c(SCC(=O)Nc3ccccc3F)nc(C3CC3)nc2n(C)c1=O`, the EC50 in test [1] (mean of runs) was > 12.5 µM (inactive); in test [1] (setting [3]) it was above 12.5 µM; in test [1] (setting [4]) it was above 12.5 µM; at NB7+Caspase-8 (setting [3]), above 12.5 µM; at NB7+Caspase-8 (setting [4]) it was above 12.5 µM; in test [2], > 12.5 µM (inactive).

Take `Cc1onc(-c2c(Cl)cccc2Cl)c1C(=O)ONC(=O)c1ccccc1`: the EC50 is > 12.5 µM (inactive) in test [1] (mean of runs); above 12.5 µM in test [1] (setting [3]); above 12.5 µM in test [1] (setting [4]); above 12.5 µM at NB7+Caspase-8 (setting [3]); above 12.5 µM on NB7+Caspase-8 (setting [4]); > 12.5 µM (inactive) in test [2].

In the case of `CC(C)(C)OC(=O)NCc1ccc(NC(=O)c2nc[nH]c2C(=O)N[C@@H](Cc2ccccc2)C(=O)OCc2ccccc2)cc1`, the EC50 was > 12.5 µM (inactive) in test [1] (mean of runs); above 12.5 µM in test [1] (setting [3]); above 12.5 µM in test [1] (setting [4]); above 12.5 µM at NB7+Caspase-8 (setting [3]); above 12.5 µM on NB7+Caspase-8 (setting [4]); > 12.5 µM (inactive) in test [2].

On to `C=Cc1ccc(Cn2c(C)c(C(=O)NCc3cccc(C(F)(F)F)c3)sc2=O)cc1`, for which the EC50 in test [1] (mean of runs) is > 12.5 µM (inactive); in test [1] (setting [3]) it was above 12.5 µM; in test [1] (setting [4]) it was above 12.5 µM; at NB7+Caspase-8 (setting [3]), above 12.5 µM; at NB7+Caspase-8 (setting [4]) it was above 12.5 µM; in test [2] it was > 12.5 µM (inactive).

Consider `O=C(Nc1ccc2c(c1)OCO2)c1ccc2c(c1)OCO2`, for which the EC50 result in test [1] (mean of runs) and in test [2] was “inactive” in each case. Also, the EC50 is 6.92 µM in test [1] (setting [3]), 11.2 µM in test [1] (setting [4]), above 12.5 µM at NB7+Caspase-8 (setting [3]) and 5.17 µM at NB7+Caspase-8 (setting [4]).

For `CCC(C)c1ccc(O)c(NC(=S)NC(=O)c2cccs2)c1` (stereo not given), the EC50 result in test [1] (mean of runs) and in test [2] was “inactive” in each case. The EC50 in test [1] (setting [3]) was 5.97 µM; in test [1] (setting [4]), 8.18 µM; at NB7+Caspase-8 (setting [3]), above 12.5 µM; on NB7+Caspase-8 (setting [4]), 7.09 µM.

As to `Cc1cc2nc(-c3ccc(SCC(=O)Nc4nccs4)nc3)[nH]c2cc1C`, the EC50 in test [1] (mean of runs) was > 12.5 µM (inactive); in test [1] (setting [3]), above 12.5 µM; in test [1] (setting [4]), above 12.5 µM; at NB7+Caspase-8 (setting [3]), 5.16 µM; at NB7+Caspase-8 (setting [4]) it was above 12.5 µM. In test [2], the EC50 entry was “inactive”.

With `O=c1cc(-c2ccccc2)nc2cc(-c3ccc(F)cc3)[nH]n12`, the EC50 in test [1] (mean of runs) is > 12.5 µM (inactive); in test [1] (setting [3]), above 12.5 µM; in test [1] (setting [4]), above 12.5 µM; at NB7+Caspase-8 (setting [3]), above 12.5 µM; on NB7+Caspase-8 (setting [4]), above 12.5 µM; in test [2], > 12.5 µM (inactive).

For the compound `CC(C)(C)OC(=O)[C@H](Cc1ccccc1)NC(=O)c1[nH]cnc1C(=O)Nc1ccccc1F`, the EC50 in test [1] (mean of runs) was > 12.5 µM (inactive); in test [1] (setting [3]), above 12.5 µM; in test [1] (setting [4]) it was above 12.5 µM; at NB7+Caspase-8 (setting [3]), above 12.5 µM; at NB7+Caspase-8 (setting [4]), above 12.5 µM; in test [2], > 12.5 µM (inactive).

In the case of `COc1cccc(NC(=O)c2ccc3c(c2)OCO3)c1`, the EC50 entry in test [1] (mean of runs) and in test [2] was “inactive” in each case. Further, the EC50 in test [1] (setting [3]) amounted to 8.96 µM; in test [1] (setting [4]), 11.9 µM; on NB7+Caspase-8 (setting [3]), 7.39 µM; at NB7+Caspase-8 (setting [4]), 11 µM.

As for `O=C1c2ccc(Cl)cc2S(=O)(=O)c2cccc(C(=O)N3CCC(Cc4ccccc4)CC3)c21`, the EC50 in test [1] (mean of runs) was > 12.5 µM (inactive); in test [1] (setting [3]), above 12.5 µM; in test [1] (setting [4]), above 12.5 µM; at NB7+Caspase-8 (setting [3]), above 12.5 µM; at NB7+Caspase-8 (setting [4]), above 12.5 µM; in test [2], > 12.5 µM (inactive).
